Measured values: patent publication US20260092085A1, “SYNTHETIC TRIPLEX PEPTIDE NUCLEIC ACID-BASED INHIBITORS FOR CANCER THERAPY” (University of Connecticut, priority 2022, published 2026)
{RR} = two arginine residues at the PNA terminus

What was measured:
[1] = system: U2932 subcutaneous tumors; assay: Tumor growth in U2932 derived xenograft model; format: in vivo, NSG mice; conditions: intra-tumoral injections days 0, 7, 14
Method: Mouse tumor xenograft: Female NSG mice (NOD.Cg-Prkdcscid Il2rgtm1Wjl/SzJ, strain 005557) weighing 20-23 g were procured from Jackson laboratories. 1×10^7 U2932 cells suspended in RPMI-1640 medium were injected subcutaneously in the right and left flank of 6-week-old NSG mice. The mice developed a small bump in 2 weeks. When the tumor volume reached 100-200 mm^3, the mice were randomly assigned to the treatment group (n=6 per group).
(§1) RNA and Protein extraction from tumor samples: The mice were injected intra-tumorally with 1 mg kg-1 dose of PNA-155, γtcPNA-155, γPNA-155, Scr-γtcPNA-155 or were untreated. The injections were repeated two additional times after 1 week each. The length, breadth, and depth of the tumors were measured daily using a vernier caliper. The mice were euthanized when the tumor volumes reached 2000 mm^3. The resected tumor sections were finely minced using a sterile blade and suspended in dissociation media (4 ml) comprising of RPMI-1640, 1.2 mg/ml dispase, and 0.5 mg/ml collagenase for 90 mins at 500 rpm at 37° C. The dissociated tumors were washed with buffer saline at 2500 rpm (4 mins) at 4° C. and then suspended in 0.25% trypsin for 4 mins at room temperature. RPMI 1640 media was added to the trypsinized tumor mass, and the cells were passed through a 70 um filter. The cells were centrifuged at 2500 rpm for 4 mins at 4° C. The cell pellet was then suspended in 1×RBC lysis buffer (Sigma) and incubated on ice for 10 mins. PBS was added to the cells and the cells were passed through a 40 um filter. The cells were centrifuged at 2500 rpm for 4 mins at 4° C. The cell pellet was resuspended in 0.5% BSA in PBS. The mouse cells were removed from the tumor cells using a mouse cell depletion kit (Miltenyi Biotec) according to the manufacturer's protocol. The enriched tumor cells from each tumor sample were divided into two fractions. RNA for gene expression analysis was extracted from one tumor fraction by the same procedure as mentioned earlier. The protein for western blot analysis was extracted from the second fraction using the method described above.
For the efficacy study, each mouse received three intra-tumoral injections of either γtcPNA-155, γPNA-155 or PNA-155 on days 0, 7, 14. We noticed that the control and scrambled treated tumors reached 2000 mm^3 much faster during our study, so we could not inject a third time in these mice. […] In contrast, as stated earlier, there was no effect on the control and scrambled PNA control on the tumor volume.

miR-155 = miR-155 gene expression in U2932 tumor samples after in vivo treatment; design: species or system NSG mice; conditions: U2932 xenograft, intra-tumoral
Method: FIGS. 22A-D show in vivo gene expression and protein level analysis. (22A) miR-155 gene expression levels in U2932 tumor samples after in vivo treatment with indicated PNAs. Data was normalized with average control U6 (n=4, data represented as mean±standard error mean). ***p<0.001 (22B) Gene expression level of downstream target genes of miR-155: MCL1 in U2932 tumor samples after treatment with total 3 mg kg-1 dose of Scr-γtcPNA-155, PNA-155, γPNA-155 and γtcPNA-155 and normalized with average control GAPDH (n=3, data represented as mean±SEM), unpaired two-tailed t-test was performed for analysis). *p<0.05, **p<0.01 (22C) Representative western blot of Mcl-1 protein and its quantification (n=3 technical replicate) in U2932 tumor samples treated with total 3 mg kg-1 dose of Scr-γtcPNA-155, PNA-155 and γtcPNA-155. Data is represented as mean±SEM and unpaired two-tailed t-test was performed for analysis. *p<0.05. The relative protein levels were determined from the band intensity using ImageJ software and normalized relative to loading control and treatment control. (22D) Gene expression level of tumor suppressor proteins (FOXO3A, CUX1, SOCS1, CSF1R, JARID2, SHIP1, PICALM, PDCD4, BACH1, CASP3) in U2932 tumor samples after treatment with total 3 mg kg-1 dose of Scr-γtcPNA-155, PNA-155, γPNA-155 and γtcPNA-155 and normalized with average control GAPDH (n=3, data represented as mean±SEM, unpaired two-tailed t-test was performed for statistical analysis). *p<0.05, **p<0.01.
as §1, with “The mouse cells were removed from the tumor cells using a mouse cell depletion kit (Miltenyi Biotec) according to the manufacturer's protocol. The enriched tumor cells from each tumor sample were divided into two fractions. RNA for gene expression analysis was extracted from one tumor fraction by the same procedure as mentioned earlier. The protein for western blot analysis was extracted from the second fraction using the method described above.” left out

PBMC cells = assay: Safety assessment by trypan blue assay in PBMC; format: cell-based; conditions: 500-4000 nM, 48 hours
Method: Control is PBS treated PBMC cells. n=3, data represented as mean±standard error mean (SEM).
Safety assessment by trypan blue assay […] blood mononuclear cells (PBMC) (ATCC® PCS-800-011™) were purchased from ATCC (Virginia, USA). The cells were regularly tested for Mycoplasma contamination using MycoAlert™ Mycoplasma detection kit (Lonza). All the cells used in the experiment were passaged less than 2 times. 10,000 PBMC cells were seeded in a 96 well plate. The cells were treated with 500 nM, 1000 nM, 2000 nM and 4000 nM PNA-155 and γtcPNA-155 for 48 hrs in an incubator. The dead cells were examined with trypan blue and further counted using an automated cell counter (Bio-rad).

Row | Substance | tumor growth / tumor volume [1] | decrease in miR-155 gene expression in tumors (miR-155) [%] | viability of PBMC cell lines (PBMC cells)
1 | γtcPNA-155: serine gamma tail-clamp anti-miR-155 PNA, RR-TJJJJ-OOO-ACCCCTATCACGATTAGCATTAA-RR, SEQ ID NO: 3 (all peptide nucleic acid (PNA); serine gamma PNA, tail-clamp TJJJJ via linkers, Arg-Arg at both ends) | reduced the tumor growth | 90 | did not notice a significant reduction in viability
2 | PNA-155: conventional full-length regular PNA (23mer), RR-ACCCCTATCACGATTAGCATTAA-RR, SEQ ID NO: 1 (all peptide nucleic acid (PNA), 5' {RR}, 3' {RR}) [reference compound] | reduced the tumor growth | 75 | did not notice a significant reduction in viability
